Laboratory results as given in ChEMBL document CHEMBL1128085, “Asymmetric synthesis of FR165914: A novel 3-adrenergic agonist with a benzocycloheptene structure” (Bioorg Med Chem Lett, 1995).
pEC50, pIC50: −log10 of the molar value.

Assays:
[1] = target: Beta-1 adrenergic receptor (Cavia porcellus, UniProt B0FL73); assay: Agonistic activity against Beta-1 adrenergic receptor in guinea pig atrium; format: functional, tissue-based, Cardiac atrium
[2] = target: Beta-3 adrenergic receptor (Rattus norvegicus, UniProt P26255); assay: Agonistic activity against Beta-3 adrenergic receptor in rat colon; format: functional
Chain of Beta-3 adrenergic receptor (P26255 whole entry): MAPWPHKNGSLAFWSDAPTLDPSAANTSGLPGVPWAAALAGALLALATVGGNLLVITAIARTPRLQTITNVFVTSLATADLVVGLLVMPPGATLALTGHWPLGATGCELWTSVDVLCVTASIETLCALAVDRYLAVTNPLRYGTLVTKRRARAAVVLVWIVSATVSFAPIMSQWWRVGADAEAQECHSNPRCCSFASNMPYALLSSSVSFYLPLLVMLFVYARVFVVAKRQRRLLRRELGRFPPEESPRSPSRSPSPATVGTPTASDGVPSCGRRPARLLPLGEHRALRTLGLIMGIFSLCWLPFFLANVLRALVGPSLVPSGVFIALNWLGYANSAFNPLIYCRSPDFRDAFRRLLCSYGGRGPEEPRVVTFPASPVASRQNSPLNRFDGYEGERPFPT

Chain of Beta-1 adrenergic receptor (B0FL73 whole entry): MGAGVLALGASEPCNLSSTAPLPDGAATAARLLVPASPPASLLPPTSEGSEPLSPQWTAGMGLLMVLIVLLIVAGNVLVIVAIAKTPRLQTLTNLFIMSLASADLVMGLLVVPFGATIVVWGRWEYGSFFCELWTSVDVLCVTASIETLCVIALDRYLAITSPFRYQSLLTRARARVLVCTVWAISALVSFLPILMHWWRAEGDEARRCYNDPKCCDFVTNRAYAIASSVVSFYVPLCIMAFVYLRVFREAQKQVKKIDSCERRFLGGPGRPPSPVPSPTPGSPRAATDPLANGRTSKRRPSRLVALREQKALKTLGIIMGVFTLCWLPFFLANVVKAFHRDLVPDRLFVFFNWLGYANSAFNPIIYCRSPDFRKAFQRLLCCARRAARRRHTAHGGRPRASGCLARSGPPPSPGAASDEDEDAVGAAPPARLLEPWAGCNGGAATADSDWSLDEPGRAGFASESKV

## O=C(O)C1(C(=O)O)Oc2cc3c(cc2O1)C[C@@H](NC[C@H](O)c1cccc(Cl)c1)CCC3
[1]
  pEC50: < 5.00
[2]
  pIC50: 8.22
